Results reported in PubChem BioAssay (NCI).
Several values for one entry are separate records, joined by “and”; a condition that tells them apart may be missing. Identical values can stand only once.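 Method: 48-hour compound exposure of cells in 96-well plates, five concentrations, linear interpolation of endpoints. GI50 marks 50% less growth. At the TGI there is no net growth.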

Tests used:
Test in all cases: NCI anticancer screen, dose series, 48 h
[1] = system: UO-31 renal
[2] = system: SNB-19 CNS
[3] = system: EKVX NSCLC
[4] = system: OVCAR-8 ovarian
[5] = system: SN12C renal
[6] = system: RXF 393 renal
[7] = system: MDA-MB-231 breast
[8] = system: HOP-62 NSCLC
[9] = system: MOLT-4 leukemia
[10] = system: SF-539 CNS

Structure (SMILES)	TGI [1]	TGI [2]	TGI [3]	TGI [4]	TGI [5]	TGI [6]	TGI [7]	TGI [8]	TGI [9]	TGI [10]	GI50 [1]	GI50 [2]	GI50 [3]	GI50 [4]	GI50 [5]	GI50 [6]	GI50 [7]	GI50 [8]	GI50 [9]	GI50 [10]
CCCCS(=O)(=O)CCC(N)C(=O)O (centres undefined)	> 100 µM	> 100 µM	> 100 µM	> 100 µM	> 100 µM	> 100 µM	> 100 µM	> 100 µM	> 100 µM	> 100 µM	–	–	–	–	–	–	–	–	–	–
NC(=O)c1ccc2nc(-c3ccc(Oc4ccc(Cl)cc4)cc3)[nH]c2c1	75 µM and > 100 µM	> 75 µM and 52.6 µM	> 75 µM	75 µM and 34.4 µM	75 µM and 30.2 µM	75 µM and 30.2 µM	> 75 µM and 36.3 µM	75 µM and 36.1 µM	75 µM and 33.3 µM	75 µM and 28 µM	30 µM and 24.1 µM	> 75 µM and 22.5 µM	> 75 µM	58 µM and 12.9 µM	39.4 µM and 14.6 µM	48.9 µM and 14.9 µM	> 75 µM and 18.8 µM	48.4 µM and 13.7 µM	28.6 µM and 11.5 µM	27.6 µM and 13 µM
CC1(C)[C@@H](O[C@@H]2OC[C@@H](O[C@@H]3O[C@H](CO)[C@@H](O)[C@H](O)[C@H]3O[C@@H]3OC[C@@H](O)[C@H](O)[C@H]3O)[C@H](O)[C@H]2O[C@@H]2O[C@H](CO)[C@@H](O)[C@H](O)[C@H]2O)CC[C@]2(C)[C@H]3CC[C@]45OC[C@@]6(CC[C@](C)(C=O)C[C@H]64)[C@H](O)C[C@@]5(C)[C@]3(C)CC[C@@H]12	1.32 µM	1.77 µM	1.96 µM	2.57 µM	1.79 µM	2.07 µM	1.9 µM	1.79 µM	2.31 µM	3.35 µM	0.649 µM	0.872 µM	0.945 µM	1.07 µM	0.847 µM	0.892 µM	0.915 µM	0.898 µM	0.962 µM	1.21 µM
CC[C@@H](C(=O)[C@@H](C)[C@@H](O)[C@H](C)[C@@H]1O[C@@H]([C@@H](CC)C(=O)N(CC)CC)CC[C@@H]1C)C1O[C@]2(C=CC(=O)[C@]3(CC[C@@](C)([C@H]4CC[C@](O)(CC)[C@H](C)O4)O3)O2)[C@H](C)C[C@@H]1C (some centres undefined)	10.2 µM	> 100 µM	18.6 µM	> 100 µM	8.64 µM	4.06 µM	3.33 µM	20.1 µM	8.06 µM	5.47 µM	2.42 µM	3.31 µM	2.75 µM	3.55 µM	2.41 µM	1.66 µM	1.69 µM	3.75 µM	2.66 µM	2.26 µM
Cc1cc(Cl)ccc1NC(=O)c1cc2ccccc2cc1O	> 100 µM	> 100 µM	> 100 µM	> 100 µM	> 100 µM	8.6 µM	25.5 µM	> 100 µM	> 36.2 µM	> 100 µM	0.405 µM	0.736 µM	2.61 µM	0.882 µM	0.377 µM	1.18 µM	1.01 µM	2.68 µM	0.651 µM	0.783 µM
CCCCCCCCCCCC1CCCC(C)N1 (centres undefined)	16.4 µM and 105 µM	25.3 µM and 155 µM	26.3 µM and 119 µM	40.1 µM and 167 µM	23.9 µM and 131 µM	35.6 µM and 108 µM	18 µM	46 µM and 107 µM	–	24.8 µM and 141 µM	3.29 µM	11.4 µM	12.2 µM	13.8 µM	6.3 µM	15.2 µM	3.99 µM	14.8 µM	1.79 µM	12.2 µM
N#CSCC1CC(O)(c2ccccc2)CC(c2ccc(F)cc2)O1 (centres undefined)	6.03 µM	13.7 µM	5.43 µM	4.37 µM	3.47 µM	3.47 µM	4.2 µM	3.61 µM	3.51 µM	3.66 µM	1.82 µM	4.14 µM	1.94 µM	2.02 µM	1.8 µM	1.72 µM	1.97 µM	1.99 µM	0.674 µM	1.96 µM
COc1cc2c(cc1Nc1nc(Nc3ccsc3C(N)=O)c3cc[nH]c3n1)N(C(=O)CN(C)C)CCC2(C)C	4.69 µM	7.1 µM	4.97 µM	5.69 µM	7.18 µM	5.09 µM	7.42 µM	5.3 µM	8.91 µM	7.05 µM	1.09 µM	3.62 µM	0.453 µM	1.64 µM	3.13 µM	1.67 µM	3.22 µM	1.65 µM	1.9 µM	3.35 µM
COc1cc(O)c(C(=O)/C=C/c2ccc(O)cc2)c(O)c1[C@@H]1C[C@H](CCc2ccc(O)cc2)O[C@H](c2ccc(O)cc2)C1	14.1 µM	13.3 µM	15.8 µM	29.1 µM	20.3 µM	9.07 µM	6.32 µM	11.2 µM	5.43 µM	7.4 µM	3.17 µM	3.58 µM	4.35 µM	3.77 µM	4.36 µM	3.1 µM	2.26 µM	3.17 µM	1.95 µM	2.61 µM
